Reference: patent US10688086B2, “Method for treating cancer with dihydropyridine calcium antagonist” (GERMARK BIOTECHNOLOGY CO., LTD, priority 2016, dated 2020)

System: HepG2 cells
Assay: Cell metastasis (Transwell, Calcein AM fluorescence), HepG2
Type: cell-based
Details: 10 μM, 48 or 72 hrs
Method: The HepG2 and Hep3B cells were separately cultured in an insert of the Transwell plate, then added with 10 μM Amlodipine and cultured for 48 or 72 hrs. The insert was placed in a serum-free DMEM medium containing […] Calcien AM. Fluorescent staining was carried out in a culture environment at 37° C. After about 45-60 min, the cells were scraped off with 0.05% Trypsin-EDTA, and the fluorescence intensity at a wavelength of 490 to 520 nm was measured.

Compound: CCOC(=O)C1=C(COCCN)NC(C)=C(C(=O)OC)C1c1ccccc1Cl (stereo not shown) [Amlodipine]
- fluorescence intensity (cell metastasis) vs cells not treated with Amlodipine: lower
